For series [1], the system named is 5HT2A/2C mediated elevations of prolactin levels. The note with it: known from literature; cited from earlier work.
The conditions of series [2]: rhesus monkeys; cited from earlier work.
Series [3] has as its system 5-HT2A/D2. Description: 5-HT2A/D2 receptor affinity ratio. It counts as binding, human. The note with it: Table 2; affinity ratio from data of Table 1.
The subject of series [4] is 5-HT2C/5-HT2A. Description: 5-HT2C/5-HT2A receptor affinity ratio. Format: binding, human. The conditions noted are these: Table 2; affinity ratio from data of Table 1.
For series [5], the system named is 5-HT2C/D2. Description: 5-HT2C/D2 receptor affinity ratio. Format: binding, human. The note with it: Table 2; affinity ratio from data of Table 1.
Series [6] has as its target 5-HT6 receptor (Rattus norvegicus, UniProt P31388). The note with it: cited from earlier work.
For series [7], the target named is 5-HT7 receptor (Rattus norvegicus, UniProt P32305). The conditions noted are these: cited from earlier work.
Series [8] concerns the target D1 dopamine receptor (Rattus norvegicus, UniProt P18901). The conditions noted are these: cited from earlier work.
Series [9] has as its target T1, D4 dopamine receptor (Rattus norvegicus, UniProt P30729).
T1 sequence (P30729 1-387): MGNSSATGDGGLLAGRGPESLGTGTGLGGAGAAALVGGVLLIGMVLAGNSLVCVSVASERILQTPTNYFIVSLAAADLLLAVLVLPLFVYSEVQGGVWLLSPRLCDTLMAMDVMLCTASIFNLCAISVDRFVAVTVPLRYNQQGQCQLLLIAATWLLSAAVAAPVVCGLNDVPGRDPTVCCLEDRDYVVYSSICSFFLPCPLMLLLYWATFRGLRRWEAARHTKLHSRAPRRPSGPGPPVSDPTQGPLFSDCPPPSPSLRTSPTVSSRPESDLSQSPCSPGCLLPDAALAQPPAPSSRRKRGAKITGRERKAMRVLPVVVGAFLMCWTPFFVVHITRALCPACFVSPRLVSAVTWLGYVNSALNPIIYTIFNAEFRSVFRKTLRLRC
The conditions noted are these: cited from earlier work.

The target in series [10] is M2 muscarinic acetylcholine receptor (Homo sapiens, UniProt P08172). The note with it: expressed as KD; cited from earlier work.
For series [11], the target named is M3 muscarinic acetylcholine receptor (Homo sapiens, UniProt P20309). The note with it: expressed as KD; cited from earlier work.
Series [12] addresses T2, M4 muscarinic acetylcholine receptor (Homo sapiens, UniProt P08173).
T2 sequence (P08173 1-479): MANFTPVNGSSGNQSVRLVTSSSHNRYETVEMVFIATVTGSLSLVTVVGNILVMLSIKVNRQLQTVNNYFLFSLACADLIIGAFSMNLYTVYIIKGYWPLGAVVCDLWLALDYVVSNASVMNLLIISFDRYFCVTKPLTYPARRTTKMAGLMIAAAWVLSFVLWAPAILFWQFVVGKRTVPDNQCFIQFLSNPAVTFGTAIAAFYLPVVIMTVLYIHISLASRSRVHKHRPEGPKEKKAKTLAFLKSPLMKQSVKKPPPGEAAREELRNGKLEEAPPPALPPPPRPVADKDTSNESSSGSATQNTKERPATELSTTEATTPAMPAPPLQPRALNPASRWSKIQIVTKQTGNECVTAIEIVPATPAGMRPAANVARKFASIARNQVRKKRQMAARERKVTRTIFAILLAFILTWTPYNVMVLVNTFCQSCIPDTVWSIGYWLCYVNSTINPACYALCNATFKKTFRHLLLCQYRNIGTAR
The note with it: expressed as KD; cited from earlier work.

Series [13] has as its target T3, M5 muscarinic acetylcholine receptor (Homo sapiens, UniProt P08912).
T3 sequence (P08912 1-532): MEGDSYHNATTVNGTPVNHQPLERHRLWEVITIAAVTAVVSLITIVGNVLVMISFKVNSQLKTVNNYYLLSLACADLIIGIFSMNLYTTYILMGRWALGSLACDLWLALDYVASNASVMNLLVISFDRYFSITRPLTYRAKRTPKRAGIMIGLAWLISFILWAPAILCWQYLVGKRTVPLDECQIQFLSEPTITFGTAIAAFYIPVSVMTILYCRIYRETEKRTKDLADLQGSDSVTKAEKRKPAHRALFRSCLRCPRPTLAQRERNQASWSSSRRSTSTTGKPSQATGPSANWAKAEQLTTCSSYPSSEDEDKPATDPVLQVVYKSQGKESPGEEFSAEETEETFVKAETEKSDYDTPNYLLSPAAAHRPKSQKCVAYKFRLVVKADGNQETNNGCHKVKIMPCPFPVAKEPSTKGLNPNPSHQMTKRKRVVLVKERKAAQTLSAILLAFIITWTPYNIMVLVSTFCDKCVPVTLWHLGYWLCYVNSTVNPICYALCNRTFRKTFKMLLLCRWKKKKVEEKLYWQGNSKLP
The conditions noted are these: expressed as KD; cited from earlier work.

Series [14] addresses M1 muscarinic acetylcholine receptor (Homo sapiens, UniProt P11229). The conditions noted are these: expressed as KD; cited from earlier work.
Series [15] concerns 5-HT2C receptor relative to 5-HT2A and D2 receptors. The experiment in a line: Relative 5-HT2C affinity (formula I, sum of 5-HT2C/5-HT2A and 5-HT2C/D2 affinity ratios). The note with it: for (2C/2A) + (2C/D2): Table 2, sum of affinity ratios from data of Table 1.
Series [16] addresses 5-HT2A receptor (Homo sapiens, UniProt P28223). The note with it: Table 3; expressed as pKi or pKd values; known affinities; cited from earlier work.
The target of series [17] is D2 receptor (Homo sapiens, UniProt P14416). The conditions noted are these: Table 3; expressed as pKi or pKd values; known affinities; cited from earlier work.
Series [18] addresses T4, 5-HT2C receptor (Homo sapiens, UniProt P28335).
T4 sequence (P28335 33-458): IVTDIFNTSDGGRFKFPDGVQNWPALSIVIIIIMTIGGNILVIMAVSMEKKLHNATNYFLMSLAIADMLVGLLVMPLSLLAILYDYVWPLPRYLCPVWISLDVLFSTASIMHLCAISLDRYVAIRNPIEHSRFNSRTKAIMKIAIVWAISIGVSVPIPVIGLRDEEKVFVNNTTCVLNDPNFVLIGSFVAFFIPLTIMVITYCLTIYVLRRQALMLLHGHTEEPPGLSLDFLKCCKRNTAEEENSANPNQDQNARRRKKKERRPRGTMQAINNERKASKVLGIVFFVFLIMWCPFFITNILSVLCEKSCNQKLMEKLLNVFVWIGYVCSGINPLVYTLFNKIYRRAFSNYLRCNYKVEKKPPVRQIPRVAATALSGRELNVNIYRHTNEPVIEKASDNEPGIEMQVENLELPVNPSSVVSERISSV
The note with it: active metabolite in man; U.S. Pat. No. 6,093,747; cited from earlier work.

Series [19] deals with H1/D2. Description: H1/D2 receptor affinity ratio. Format: binding, human. The note with it: Table 2; affinity ratio from data of Table 1.
Series [20] has as its target 5-HT2C receptor (Rattus norvegicus, UniProt P08909). The conditions noted are these: cited from earlier work.
Series [21] concerns the target T5, D4 dopamine receptor (Homo sapiens, UniProt P21917).
T5 sequence (P21917 1-419): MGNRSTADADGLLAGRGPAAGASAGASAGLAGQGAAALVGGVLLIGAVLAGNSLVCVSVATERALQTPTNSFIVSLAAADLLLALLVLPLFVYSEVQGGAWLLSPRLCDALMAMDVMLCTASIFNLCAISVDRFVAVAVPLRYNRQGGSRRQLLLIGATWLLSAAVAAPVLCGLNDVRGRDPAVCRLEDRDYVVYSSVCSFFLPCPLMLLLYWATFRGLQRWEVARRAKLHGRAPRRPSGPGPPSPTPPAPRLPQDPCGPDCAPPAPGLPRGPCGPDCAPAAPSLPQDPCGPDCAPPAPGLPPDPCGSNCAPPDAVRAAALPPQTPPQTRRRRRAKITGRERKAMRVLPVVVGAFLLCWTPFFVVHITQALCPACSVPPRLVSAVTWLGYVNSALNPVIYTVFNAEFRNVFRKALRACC
The note with it: cited from earlier work.

Details of series [22]: key: 1-high; 2-medium; 3-low probability. The conditions noted are these: Table 4A; grading of probability from literature reports; cited from earlier work.
On the set-up of series [23]: key: 1-high; 2-medium; 3-low probability. The note with it: Table 4A; grading of probability from literature reports; cited from earlier work. This is another data set of the same source.
The conditions of series [24]: Table 4A; grading of probability from literature reports; cited from earlier work.
On the set-up of series [25]: key: 1-high; 2-medium; 3-low probability. The note with it: Table 4A; grading of probability from literature reports; cited from earlier work. The source holds these as a separate data set.
Details of series [26]: key to Weight Gain: 1-high; 2-medium; 3-low probability. The conditions noted are these: cited from earlier work; for Weight Gain: Table 4A, grading of probability from literature reports.

These results are taken from US20060229299A1, “5ht2c Receptor antagonists in the treatment of schizophrenia” (priority 2003, published 2006).

Chain of 5-HT6 receptor (P31388 whole entry): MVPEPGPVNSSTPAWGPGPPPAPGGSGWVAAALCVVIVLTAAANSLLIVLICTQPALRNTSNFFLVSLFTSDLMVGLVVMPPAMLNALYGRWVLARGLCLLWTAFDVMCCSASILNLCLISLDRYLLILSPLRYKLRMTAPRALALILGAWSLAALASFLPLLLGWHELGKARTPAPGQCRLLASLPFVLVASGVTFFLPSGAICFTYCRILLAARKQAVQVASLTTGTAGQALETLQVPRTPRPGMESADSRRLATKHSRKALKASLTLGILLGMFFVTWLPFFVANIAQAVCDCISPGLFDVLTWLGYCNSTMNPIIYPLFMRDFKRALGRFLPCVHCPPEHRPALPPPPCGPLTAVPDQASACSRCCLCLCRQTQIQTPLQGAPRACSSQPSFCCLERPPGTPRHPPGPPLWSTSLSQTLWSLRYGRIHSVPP
Chain of M3 muscarinic acetylcholine receptor (P20309 whole entry): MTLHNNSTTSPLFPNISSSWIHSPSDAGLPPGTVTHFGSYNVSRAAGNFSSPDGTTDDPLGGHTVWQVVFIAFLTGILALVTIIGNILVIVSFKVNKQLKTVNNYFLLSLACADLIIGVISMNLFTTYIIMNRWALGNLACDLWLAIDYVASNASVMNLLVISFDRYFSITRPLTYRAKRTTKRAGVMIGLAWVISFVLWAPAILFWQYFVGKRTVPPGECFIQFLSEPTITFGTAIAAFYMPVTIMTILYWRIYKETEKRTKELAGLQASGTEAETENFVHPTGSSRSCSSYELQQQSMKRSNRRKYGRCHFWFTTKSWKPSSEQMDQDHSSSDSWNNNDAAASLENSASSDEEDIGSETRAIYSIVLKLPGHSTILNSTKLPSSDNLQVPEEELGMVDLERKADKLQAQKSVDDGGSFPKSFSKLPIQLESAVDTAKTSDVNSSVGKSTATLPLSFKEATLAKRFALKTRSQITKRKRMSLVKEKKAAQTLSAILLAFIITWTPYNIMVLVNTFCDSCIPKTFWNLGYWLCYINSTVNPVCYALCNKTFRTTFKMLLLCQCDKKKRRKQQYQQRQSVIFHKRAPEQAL
Chain of 5-HT2A receptor (P28223 whole entry): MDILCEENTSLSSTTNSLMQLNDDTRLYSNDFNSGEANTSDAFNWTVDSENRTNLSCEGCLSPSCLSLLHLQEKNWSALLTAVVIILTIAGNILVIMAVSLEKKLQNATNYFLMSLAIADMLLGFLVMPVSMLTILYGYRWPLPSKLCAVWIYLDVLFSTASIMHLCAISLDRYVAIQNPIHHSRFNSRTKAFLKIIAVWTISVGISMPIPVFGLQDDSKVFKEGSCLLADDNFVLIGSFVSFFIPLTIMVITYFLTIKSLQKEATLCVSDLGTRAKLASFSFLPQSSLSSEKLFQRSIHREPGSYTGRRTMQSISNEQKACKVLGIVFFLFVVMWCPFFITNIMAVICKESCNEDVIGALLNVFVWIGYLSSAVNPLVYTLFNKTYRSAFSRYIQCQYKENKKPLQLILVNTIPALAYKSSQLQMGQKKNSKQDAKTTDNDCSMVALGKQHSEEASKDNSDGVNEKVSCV
Chain of M1 muscarinic acetylcholine receptor (P11229 whole entry): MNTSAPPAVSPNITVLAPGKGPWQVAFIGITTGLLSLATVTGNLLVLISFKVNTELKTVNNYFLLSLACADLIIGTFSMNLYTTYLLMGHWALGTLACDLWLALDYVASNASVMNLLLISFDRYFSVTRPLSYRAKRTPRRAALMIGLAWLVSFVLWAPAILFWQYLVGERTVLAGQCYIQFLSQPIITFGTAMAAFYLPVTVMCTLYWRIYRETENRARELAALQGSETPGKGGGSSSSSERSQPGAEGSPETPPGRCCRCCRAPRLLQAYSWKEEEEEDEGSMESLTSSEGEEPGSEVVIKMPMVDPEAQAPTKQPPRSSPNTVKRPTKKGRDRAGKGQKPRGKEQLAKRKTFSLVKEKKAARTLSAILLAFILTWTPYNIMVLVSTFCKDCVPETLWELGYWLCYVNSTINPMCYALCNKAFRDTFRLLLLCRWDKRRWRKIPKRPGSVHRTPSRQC
Chain of M2 muscarinic acetylcholine receptor (P08172 whole entry): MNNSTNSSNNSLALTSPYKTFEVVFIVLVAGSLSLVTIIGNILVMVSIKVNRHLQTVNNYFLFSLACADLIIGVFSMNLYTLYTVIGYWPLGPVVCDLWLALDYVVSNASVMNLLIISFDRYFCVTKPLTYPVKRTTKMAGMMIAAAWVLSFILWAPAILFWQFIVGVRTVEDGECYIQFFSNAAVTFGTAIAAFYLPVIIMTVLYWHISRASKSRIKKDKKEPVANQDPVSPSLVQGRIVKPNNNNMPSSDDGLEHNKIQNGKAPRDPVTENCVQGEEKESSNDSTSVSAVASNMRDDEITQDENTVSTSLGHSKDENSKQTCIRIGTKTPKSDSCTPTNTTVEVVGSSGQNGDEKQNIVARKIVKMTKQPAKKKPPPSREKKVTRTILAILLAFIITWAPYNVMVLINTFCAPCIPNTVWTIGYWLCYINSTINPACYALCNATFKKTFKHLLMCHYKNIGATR
Chain of 5-HT2C receptor (Rattus norvegicus, UniProt P08909) (P08909 33-460): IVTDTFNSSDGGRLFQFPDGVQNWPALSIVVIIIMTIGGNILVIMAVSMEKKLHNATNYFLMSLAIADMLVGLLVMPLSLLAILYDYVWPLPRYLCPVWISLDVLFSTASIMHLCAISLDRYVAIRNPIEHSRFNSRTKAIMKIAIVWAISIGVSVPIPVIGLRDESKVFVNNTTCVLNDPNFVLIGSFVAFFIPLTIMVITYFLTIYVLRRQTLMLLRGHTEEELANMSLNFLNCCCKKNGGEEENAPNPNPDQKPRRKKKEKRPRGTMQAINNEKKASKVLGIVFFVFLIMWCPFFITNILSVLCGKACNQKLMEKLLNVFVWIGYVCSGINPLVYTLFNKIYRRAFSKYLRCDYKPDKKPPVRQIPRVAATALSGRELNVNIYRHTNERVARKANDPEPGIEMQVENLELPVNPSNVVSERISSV
Chain of D2 receptor (P14416 whole entry): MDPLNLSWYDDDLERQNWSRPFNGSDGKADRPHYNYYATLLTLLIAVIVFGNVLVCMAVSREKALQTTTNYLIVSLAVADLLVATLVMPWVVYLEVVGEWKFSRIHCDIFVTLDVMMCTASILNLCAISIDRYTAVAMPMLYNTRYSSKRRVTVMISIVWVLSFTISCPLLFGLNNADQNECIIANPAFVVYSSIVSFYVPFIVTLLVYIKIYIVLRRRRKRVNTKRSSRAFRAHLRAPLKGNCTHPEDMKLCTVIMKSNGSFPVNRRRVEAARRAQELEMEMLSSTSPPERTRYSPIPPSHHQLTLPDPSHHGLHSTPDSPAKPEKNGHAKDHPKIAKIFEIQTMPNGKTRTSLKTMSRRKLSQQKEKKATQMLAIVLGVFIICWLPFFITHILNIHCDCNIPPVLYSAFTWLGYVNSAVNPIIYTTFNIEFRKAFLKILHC
Chain of 5-HT7 receptor (P32305 whole entry): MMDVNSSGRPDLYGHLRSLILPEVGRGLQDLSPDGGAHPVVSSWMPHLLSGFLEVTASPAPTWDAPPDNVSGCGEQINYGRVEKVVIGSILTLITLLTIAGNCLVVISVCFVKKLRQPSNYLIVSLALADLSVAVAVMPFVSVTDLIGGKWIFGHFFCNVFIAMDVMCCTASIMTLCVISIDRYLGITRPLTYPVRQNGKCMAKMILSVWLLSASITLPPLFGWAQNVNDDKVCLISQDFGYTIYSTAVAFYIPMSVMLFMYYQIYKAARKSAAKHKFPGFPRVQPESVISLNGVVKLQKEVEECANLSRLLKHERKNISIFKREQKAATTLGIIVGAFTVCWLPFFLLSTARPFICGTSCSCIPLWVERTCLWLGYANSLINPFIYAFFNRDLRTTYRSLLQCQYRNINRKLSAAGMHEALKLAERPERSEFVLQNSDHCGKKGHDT
Chain of D1 dopamine receptor (P18901 whole entry): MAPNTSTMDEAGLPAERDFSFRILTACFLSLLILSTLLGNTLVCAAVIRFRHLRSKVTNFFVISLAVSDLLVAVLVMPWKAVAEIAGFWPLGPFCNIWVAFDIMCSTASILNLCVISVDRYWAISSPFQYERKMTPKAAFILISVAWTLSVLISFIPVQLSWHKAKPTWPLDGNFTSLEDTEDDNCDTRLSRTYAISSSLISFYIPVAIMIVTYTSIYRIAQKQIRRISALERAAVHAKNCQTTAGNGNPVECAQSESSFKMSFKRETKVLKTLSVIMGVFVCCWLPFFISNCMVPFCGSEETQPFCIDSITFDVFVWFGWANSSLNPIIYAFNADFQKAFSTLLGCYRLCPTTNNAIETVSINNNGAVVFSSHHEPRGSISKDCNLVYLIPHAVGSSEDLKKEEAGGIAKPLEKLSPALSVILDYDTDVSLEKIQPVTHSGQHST

For the compound `CC(C)n1cc2c3c(cccc31)[C@H]1C[C@@H](C(=O)NC3CCCCC3)CN(C)[C@@H]1C2` [Amesergide, N-cyclohexyl-1-isopropyl-6-methyl-ergoline-8-carboxamide], in [1], the “effect on 5HT2A/2C mediated elevations of prolactin levels induced by D-fenfluramine” value was “block 5HT2A/2C mediated elevations of prolactin levels”. In series [2], the “day of maximum values of parent compounds or metabolites (4-hydroxy and desisopropyl species)” value is 35 days; the “day of minimum values of parent compounds or metabolites” value was 365 days.

With `CN1CCN(C2=Nc3cc(F)ccc3Cc3ccccc32)CC1` [Fluperlapine], the 5-HT2A/D2 in [3] worked out at 1.25. Further, the “5-HT2C/5-HT2A (2C/2A)” value in [4] came to 0.95. In addition, the “5-HT2C/D2 (2C/D2)” value in series [5] was 1.18. Further, in series [6], the “5-HT6 affinity value (−logKi)” value is given as 7.8^2. Moreover, the “5-HT7 affinity value (−logKi)” value in [7] is listed as 8.3^2. Further, in series [8], the “D1 affinity value (−logKi)” value is reported as 6.8^8. Further, the “D4 affinity value (−logKi)” value in series [9] was 6.9^4. In addition, the “M2 affinity value (−log KD)” value in series [10] is recorded as 7.1^15. Further, in [11], the “M3 affinity value (−log KD)” value is reported as 7.4^15. In addition, the “M4 affinity value (−log KD)” value in series [12] was 7.9^15. Also, in series [13], the “M5 affinity value (−log KD)” value is recorded as 7.7^15. In addition, the “M1 affinity value (−log KD)” value in [14] is reported as 8.1^15. In addition, the “(2C/2A) + (2C/D2)” value in series [15] is given as 2.13.

For `CNCCO[C@]1(c2ccccc2)C[C@H]2CC[C@]1(C)C2(C)C` [N-Desmethyl-deramciclane, (1R,2S,4R)-(−)-2-phenyl-2-(methylaminoethoxy)-1,7,7-trimethyl-bicyclo[2.2.1]heptane], in series [16], the “5-HT2A Affinity” value is reported as 7. The “D2 Affinity” value in [17] was 7. Besides, in [18], the “5-HT2C receptor antagonism compared with deramciclane” value is “even more pronounced 5-HT2C receptor antagonism”. Also, the “Formula I Affinity Ratio” value in [15] (Table 3, calculated from known 5-HT2C/5-HT2A/D2 affinities) is listed as 2.20.

Turning to `CN1CC2c3ccccc3Oc3ccc(Cl)cc3C2C1` (stereo not shown) [ORG-5222], the 5-HT2A/D2 in series [3] was 1.10. Moreover, in [4], the “5-HT2C/5-HT2A (2C/2A)” value worked out at 1.02. The “5-HT2C/D2 (2C/D2)” value in series [5] came out at 1.13. Besides, the H1/D2 in series [19] is on record as 1.02. The “(2C/2A) + (2C/D2)” value in series [15] is 2.15.

As for `O=c1[nH]c2ccccc2n1C1CCN(CCCC(c2ccc(F)cc2)c2ccc(F)cc2)CC1` [Pimozide], in series [20], the “5-HT2C affinity value (−logKi)” value was <5^1. In addition, the “5-HT6 affinity value (−logKi)” value in [6] is recorded as 7.2^2. Moreover, the “D4 affinity value (−logKi)” value in [21] is 7.4^12; in [9] it was 7.5^4.

On to `Cc1nc2n(c(=O)c1CCN1CCC(c3noc4cc(F)ccc34)CC1)CCCC2` [Risperidone], for which, in [22], the Extra-pyramidal side effects is on record as 1. Also, the Improvement negative symptoms in [23] was 3. In [24], the Improvement cognitive deficits was 2-3. Further, in [25], the Increases prolactin levels is 1. Also, the “Weight Gain” value in [26] was 2-3.

As to `OCCOCCN1CCN(C2=Nc3ccccc3Sc3ccccc32)CC1` [Seroquel], the Extra-pyramidal side effects in series [22] is on record as 2. In series [23], the Improvement negative symptoms is on record as 3. Besides, the Improvement cognitive deficits in [24] was 2-3. For the same compound, the Increases prolactin levels in series [25] was 3. In series [26], the “Weight Gain” value is on record as 2. Also, the “weight gain (in words)” value in series [26] (text b109, literature reports) was “do cause weight gain”.
